The values below are quoted from earlier work in US20210046106A1, “METHODS OF TREATING CANCER WITH ANDROGEN DEPRIVATION THERAPY IN COMBINATION WITH AN INHIBITOR OF THE SP1 TRANSCRIPTION FACTOR” (The Board of Trustees of the Leland Stanford Junior …, priority 2019, published 2021).

For this data set the following is noted: SECAR study, cited from earlier work.

Consider `O=[Se](O)O` [sodium selenite, Sodium selenite pentahydrate], for which the MTD (i.v. daily for 5 consecutive days for 2 or 4 weeks, 34 patients) was 10.2 mg/m^2. Moreover, the “most common side effects” value (i.v.) was “fatigue, nausea and cramps in fingers and legs”.
